Test system: SEM cells
Experiment: cell viability relative to DMSO control; higher = less cytotoxic
Conditions: 48 h
Outline: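 Viability values are per-plate percentages of DMSO wells, with background from cell-free wells. Library compounds in DMSO were pin-dosed, in an 11-point threefold series from 47 μM to 0.79 nM, onto NOMO1 or SEM (500 cells/well) or P12-Ichikawa (1000 cells/well) leukemia cells in 1536-well plates (5 μl). Those cells had been adapted for at least four passages in each medium, and CellTiter-Glo One luminescence was read after 48 h at 37°C.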

[1] = HPLM + 10% dialyzed FBS, 0.000781 µM
[2] = HPLM + 10% dialyzed FBS, 0.00234 µM
[3] = HPLM + 10% dialyzed FBS, 0.00702 µM
[4] = HPLM + 10% dialyzed FBS, 0.0211 µM
[5] = HPLM + 10% dialyzed FBS, 0.0632 µM
[6] = HPLM + 10% dialyzed FBS, 0.19 µM
[7] = HPLM + 10% dialyzed FBS, 0.569 µM
[8] = HPLM + 10% dialyzed FBS, 1.71 µM
[9] = HPLM + 10% dialyzed FBS, 5.12 µM
[10] = HPLM + 10% dialyzed FBS, 15.4 µM
[11] = HPLM + 10% dialyzed FBS, 46.1 µM
[12] = RPMI 5 mM glucose + 10% FBS, 0.000781 µM
[13] = RPMI 5 mM glucose + 10% FBS, 0.00234 µM
[14] = RPMI 5 mM glucose + 10% FBS, 0.00702 µM
[15] = RPMI 5 mM glucose + 10% FBS, 0.0211 µM
[16] = RPMI 5 mM glucose + 10% FBS, 0.0632 µM
[17] = RPMI 5 mM glucose + 10% FBS, 0.19 µM
[18] = RPMI 5 mM glucose + 10% FBS, 0.569 µM
[19] = RPMI 5 mM glucose + 10% FBS, 1.71 µM
[20] = RPMI 5 mM glucose + 10% FBS, 5.12 µM
[21] = RPMI 5 mM glucose + 10% FBS, 15.4 µM
[22] = RPMI 5 mM glucose + 10% FBS, 46.1 µM
[23] = RPMI 5 mM glucose + 10% dialyzed FBS, 0.000781 µM
[24] = RPMI 5 mM glucose + 10% dialyzed FBS, 0.00234 µM
[25] = RPMI 5 mM glucose + 10% dialyzed FBS, 0.00702 µM
[26] = RPMI 5 mM glucose + 10% dialyzed FBS, 0.0211 µM
[27] = RPMI 5 mM glucose + 10% dialyzed FBS, 0.0632 µM
[28] = RPMI 5 mM glucose + 10% dialyzed FBS, 0.19 µM
[29] = RPMI 5 mM glucose + 10% dialyzed FBS, 0.569 µM
[30] = RPMI 5 mM glucose + 10% dialyzed FBS, 1.71 µM
[31] = RPMI 5 mM glucose + 10% dialyzed FBS, 5.12 µM
[32] = RPMI 5 mM glucose + 10% dialyzed FBS, 15.4 µM
[33] = RPMI 5 mM glucose + 10% dialyzed FBS, 46.1 µM

With `CC(=O)O[C@H]1C(=O)[C@]2(C)[C@@H](O)C[C@H]3OC[C@@]3(OC(C)=O)C2[C@H](OC(=O)C4=CC=CC=C4)[C@]5(O)C[C@H](OC(=O)[C@H](O)[C@@H](NC(=O)C6=CC=CC=C6)C7=CC=CC=C7)\C(=C1/C5(C)C)C` (some centres undefined) as the molecule, how does the cell viability [1] read?
Its cell viability is 81.5%.

What about the cell viability [2] of the same molecule?
The cell viability was 50%.

And the cell viability [3]?
The cell viability was 31.7%.

And the cell viability [4]?
The cell viability was 27.9%.

What about the cell viability [5] of the same molecule?
The cell viability was 27.8%.

And the cell viability [6]?
Its cell viability is 26.4%.

What about the cell viability [7] of the same molecule?
Its cell viability is 26.8%.

And the cell viability [8]?
The cell viability was 24.1%.

What about the cell viability [9] of the same molecule?
Its cell viability is 26.8%.

And the cell viability [10]?
Its cell viability is 22.6%.

What about the cell viability [11] of the same molecule?
Its cell viability is 25.9%.

And the cell viability [12]?
Its cell viability is 59.1%.

What about the cell viability [13] of the same molecule?
Its cell viability is 30.5%.

What about the cell viability [14] of the same molecule?
Its cell viability is 22.3%.

What about the cell viability [15] of the same molecule?
Its cell viability is 17%.

What about the cell viability [16] of the same molecule?
The cell viability was 16.2%.

What about the cell viability [17] of the same molecule?
Its cell viability is 14.2%.

And the cell viability [18]?
The cell viability was 16.3%.

And the cell viability [19]?
Its cell viability is 15.7%.

And the cell viability [20]?
The cell viability was 15.6%.

And the cell viability [21]?
The cell viability was 15.6%.

And the cell viability [22]?
The cell viability was 13.5%.

What about the cell viability [23] of the same molecule?
The cell viability was 81.3%.

What about the cell viability [24] of the same molecule?
Its cell viability is 48.1%.

What about the cell viability [25] of the same molecule?
Its cell viability is 35.2%.

What about the cell viability [26] of the same molecule?
Its cell viability is 26.3%.

And the cell viability [27]?
The cell viability was 24.2%.

And the cell viability [28]?
Its cell viability is 23.3%.

And the cell viability [29]?
The cell viability was 22.8%.

What about the cell viability [30] of the same molecule?
The cell viability was 22.3%.

What about the cell viability [31] of the same molecule?
The cell viability was 22.4%.

What about the cell viability [32] of the same molecule?
The cell viability was 23.9%.

What about the cell viability [33] of the same molecule?
The cell viability was 22.3%.

What does the source list for `CCc1cc(Nc2nccc(-c3c(-c4ccc(OC)c(C(=O)Nc5c(F)cccc5F)c4)nc4ccccn34)n2)c(OC)cc1N1CCC(N2CCN([S+](C)(=O)[O-])CC2)CC1`?
cell viability [1]: 88.9%; cell viability [2]: 84.9%; cell viability [3]: 102%; cell viability [4]: 93.2%; cell viability [5]: 87.7%; cell viability [6]: 84.8%; cell viability [7]: 95.3%; cell viability [8]: 89.1%; cell viability [9]: 96.2%; cell viability [10]: 82.6%; cell viability [11]: 52.4%; cell viability [12]: 88.4%; cell viability [13]: 94.6%; cell viability [14]: 102%; cell viability [15]: 100%; cell viability [16]: 107%; cell viability [17]: 121%; cell viability [18]: 105%; cell viability [19]: 91.6%; cell viability [20]: 91.9%; cell viability [21]: 66.6%; cell viability [22]: 23.5%; cell viability [23]: 83.1%; cell viability [24]: 78%; cell viability [25]: 80.7%; cell viability [26]: 101%; cell viability [27]: 87.8%; cell viability [28]: 79.9%; cell viability [29]: 86%; cell viability [30]: 80.6%; cell viability [31]: 89.1%; cell viability [32]: 65.9%; cell viability [33]: 38.7%

With `C/C=C1\NC(=O)[C@H]2CSSCC/C=C\[C@H](CC(=O)N[C@H](C(C)C)C(=O)N2)OC(=O)[C@H](C(C)C)NC1=O` as the molecule, how does the cell viability [1] read?
Its cell viability is 81.1%.

And the cell viability [2]?
Its cell viability is 89%.

And the cell viability [3]?
The cell viability was 95.1%.

What about the cell viability [4] of the same molecule?
Its cell viability is 101%.

And the cell viability [5]?
The cell viability was 5.64%.

What about the cell viability [6] of the same molecule?
Its cell viability is 4.52%.

And the cell viability [7]?
Its cell viability is 4.32%.

And the cell viability [8]?
Its cell viability is 4.63%.

What about the cell viability [9] of the same molecule?
Its cell viability is 4.25%.

What about the cell viability [10] of the same molecule?
The cell viability was 3.1%.

What about the cell viability [11] of the same molecule?
The cell viability was 4.21%.

And the cell viability [12]?
The cell viability was 100%.

What about the cell viability [13] of the same molecule?
The cell viability was 103%.

And the cell viability [14]?
Its cell viability is 105%.

What about the cell viability [15] of the same molecule?
Its cell viability is 81.5%.

And the cell viability [16]?
Its cell viability is 4.85%.

What about the cell viability [17] of the same molecule?
Its cell viability is 4.94%.

And the cell viability [18]?
The cell viability was 4.25%.

What about the cell viability [19] of the same molecule?
Its cell viability is 4.39%.

What about the cell viability [20] of the same molecule?
The cell viability was 4.14%.

What about the cell viability [21] of the same molecule?
The cell viability was 3.14%.

What about the cell viability [22] of the same molecule?
Its cell viability is 4.36%.

What about the cell viability [23] of the same molecule?
The cell viability was 73%.

What about the cell viability [24] of the same molecule?
The cell viability was 106%.

What about the cell viability [25] of the same molecule?
Its cell viability is 85.9%.

And the cell viability [26]?
Its cell viability is 90.4%.

And the cell viability [27]?
Its cell viability is 5.18%.

What about the cell viability [28] of the same molecule?
Its cell viability is 4.76%.

And the cell viability [29]?
The cell viability was 4.87%.

And the cell viability [30]?
The cell viability was 4.53%.

And the cell viability [31]?
The cell viability was 4.12%.

What about the cell viability [32] of the same molecule?
Its cell viability is 2.58%.

What about the cell viability [33] of the same molecule?
Its cell viability is 4.19%.

From the supplement of paper PMC11451515
